In ChEMBL document CHEMBL4145553, “Design, synthesis, and biological evaluation of novel amide and hydrazide based thioether analogs targeting Histone deacteylase (HDAC) enzymes” (Eur J Med Chem, 2018):

Columns and labels:
HL-60 = assay: Antiproliferative activity against human HL60 cells after 24 hrs by MTT assay; assay type: functional
MDA-MB-435 = assay: Antiproliferative activity against human MDA-MB-435 cells after 24 hrs by MTT assay; assay type: functional

GI50 (HL-60): 590 nM
GI50 (MDA-MB-435): 1780 nM
Compound: CC(/C=C/C(=O)NO)=C\[C@@H](C)C(=O)c1ccc(N(C)C)cc1 [TRICHOSTATIN]
